In ChEMBL document CHEMBL4483862, “Open-source discovery of chemical leads for next-generation chemoprotective antimalarials” (2018):

Tested on: Plasmodium berghei
Assay: Luciferase/luciferin-expressing antifolate-resistant parasites were used to infect a culture of HepG2 cells that were pre-incubated with compounds. Infected hepatocytes emit light due to the luciferase reaction. Assay results are presented as the percent inhibition of light emission compared to control. […]
Assay type: functional
Details: sporozoite; for IC90: read-out: LUCIFERASE INFECTION ASSAY - IC90
[1] = read-out: LUCIFERASE INFECTION ASSAY - IC50

## O=C(O)c1cnc2cc(Cl)cc(Cl)c2c1O
FFLUC_HILL_SLOPE 2.26, FFLUC_R_SQUARED 0.266, PBLUC_HILL_SLOPE 1.77, PBLUC_R_SQUARED 0.584, read-out: LUCIFERASE INFECTION ASSAY - IC50
  IC50: 8.35 µM
  IC90: > 12.8 µM

## C=S(=O)(NC(=O)CSc1nc2ccccc2s1)c1ccc(Cl)cc1 (centres undefined)
FFLUC_HILL_SLOPE 11.2, FFLUC_R_SQUARED 0.126, read-out: LUCIFERASE INFECTION ASSAY - IC50
  IC50: > 8.31 µM
  IC90: > 8.31 µM

## Cc1ccc(C(C)CCN2CCc3c(c(C(=O)NCc4nccs4)nn3CC3CC3)C2)o1 (centres undefined)
[1]
  IC50: > 7.28 µM
  IC90: > 7.28 µM

## Cc1ccc(-c2cc(=O)n(-c3nc4ccccc4[nH]3)[nH]2)cc1
[1]
  IC50: > 11.4 µM
  IC90: > 11.4 µM

## Cc1nc(C2(NC(=O)COc3ccc4ccccc4c3)CCCCC2)no1
FFLUC_HILL_SLOPE 2.65, FFLUC_R_SQUARED 0.0928, read-out: LUCIFERASE INFECTION ASSAY - IC50
  IC50: > 10 µM
  IC90: > 10 µM

## O=C(Nc1ccccc1)Nc1ccc(Sc2cccs2)cc1
HEPG2TOX_HILL_SLOPE 12.6, HEPG2TOX_R_SQUARED 0.73, PBLUC_HILL_SLOPE 4.46, PBLUC_R_SQUARED 0.693, read-out: LUCIFERASE INFECTION ASSAY - IC50
  IC50: 5.46 µM
  IC90: 8.94 µM

## CN(C)c1ccc(CNc2ncnc3ccccc23)cc1
HEPG2TOX_HILL_SLOPE 1.21, HEPG2TOX_R_SQUARED 0.974, PBLUC_HILL_SLOPE 1.4, PBLUC_R_SQUARED 0.594, read-out: LUCIFERASE INFECTION ASSAY - IC50
  IC50: 4.35 µM
  IC90: > 10 µM

## CCOc1ccc(C(C)=O)cc1CSc1nc2ccccc2c(=O)n1C(C)COC (centres undefined)
HEPG2TOX_HILL_SLOPE 2.93, HEPG2TOX_R_SQUARED 0.419, PBLUC_HILL_SLOPE 1.84, PBLUC_R_SQUARED 0.699, read-out: LUCIFERASE INFECTION ASSAY - IC50
  IC50: 1.21 µM
  IC90: 3.98 µM

## Cc1ccc(C(=O)c2c3c4sc5ccccc5n4c(-c4ccc(C)cc4)nc-3[n+](-c3ccccc3)c2O)cc1
[1]
  IC50: > 10 µM
  IC90: > 10 µM

## CC1CC(C)CN(Cc2ccc(C(=O)Nc3ccccc3)cc2)C1 (centres undefined)
HEPG2TOX_HILL_SLOPE 11.8, HEPG2TOX_R_SQUARED 0.877, PBLUC_HILL_SLOPE 2.66, PBLUC_R_SQUARED 0.557, read-out: LUCIFERASE INFECTION ASSAY - IC50
  IC50: 3.28 µM
  IC90: 7.47 µM

## CC(C)(C)c1ccc(OS(=O)(=O)c2ccc(-c3csnn3)s2)cc1
HEPG2TOX_HILL_SLOPE 1.63, HEPG2TOX_R_SQUARED 0.666, PBLUC_HILL_SLOPE 2.62, PBLUC_R_SQUARED 0.635, read-out: LUCIFERASE INFECTION ASSAY - IC50
  IC50: 5.74 µM
  IC90: > 8.67 µM

## COc1cccc(C(=O)c2c(-c3ccco3)c3c4n(c(-c5ccc(Cl)cc5)cn24)CCCC3)c1
PBLUC_HILL_SLOPE 14.1, PBLUC_R_SQUARED 0.641, read-out: LUCIFERASE INFECTION ASSAY - IC50
  IC50: 9.18 µM
  IC90: > 10 µM

## S=C(N/N=C/c1ccccn1)Nc1ccc(Cl)c(Cl)c1
HEPG2TOX_HILL_SLOPE 7.56, HEPG2TOX_R_SQUARED 0.274, PBLUC_HILL_SLOPE 6.84, PBLUC_R_SQUARED 0.4, read-out: LUCIFERASE INFECTION ASSAY - IC50
  IC50: 7.65 µM
  IC90: > 10.1 µM

## COc1ccc(/C=C/C(=O)c2cc(F)c(Cl)cc2Cl)c(OC)c1OC
[1]
  IC50: 9.74 µM
  IC90: > 10 µM

## COc1ccc(S(=O)(=O)N2[C@@H]3CC[C@@H](C3)[C@H]2c2nc3c(OCC4CCOCC4)cccc3[nH]2)c(OC)c1
PBLUC_HILL_SLOPE 2.43, PBLUC_R_SQUARED 0.162, read-out: LUCIFERASE INFECTION ASSAY - IC50
  IC50: 8.16 µM
  IC90: > 10 µM

## O=[N+]([O-])c1cc2c(cc1C(O)c1nnc(-c3ccccc3)o1)OCO2 (centres undefined)
[1]
  IC50: 1.69 µM
  IC90: 8.01 µM

## COc1cc(CNCc2ccc3c(c2)OCO3)ccc1OCc1ccc(F)cc1
PBLUC_HILL_SLOPE 2.11, PBLUC_R_SQUARED 0.727, read-out: LUCIFERASE INFECTION ASSAY - IC50
  IC50: 5.34 µM
  IC90: > 8.35 µM

## COc1nc2c(c(-c3c(F)cccc3Cl)c1C#N)Cc1ccccc1-2
HEPG2TOX_HILL_SLOPE 6.94, HEPG2TOX_R_SQUARED 0.218, PBLUC_HILL_SLOPE 33.2, PBLUC_R_SQUARED 0.233, read-out: LUCIFERASE INFECTION ASSAY - IC50
  IC50: 9 µM
  IC90: > 9.41 µM

## O=C(CN1CCN(Cc2csc(Nc3cccc(C(F)(F)F)c3)n2)CC1)N1CCCC1
[1]
  IC50: > 10 µM
  IC90: > 10 µM

## Cc1ccccc1C(Sc1nnc(-c2ccc[nH]2)o1)c1ccccc1 (centres undefined)
HEPG2TOX_HILL_SLOPE 0.627, HEPG2TOX_R_SQUARED 0.488, read-out: LUCIFERASE INFECTION ASSAY - IC50
  IC50: > 10 µM
  IC90: > 10 µM

## C=CCn1c(C)cc(C(=O)Cn2c(=O)c(=O)n(Cc3ccccc3)c3ccc(Cl)cc32)c1C
[1]
  IC50: > 10 µM
  IC90: > 10 µM

## N=C(Cc1cccs1)NOC(=O)Nc1cc(Cl)cc(Cl)c1
PBLUC_HILL_SLOPE 2.97, PBLUC_R_SQUARED 0.445, read-out: LUCIFERASE INFECTION ASSAY - IC50
  IC50: 6.76 µM
  IC90: > 9.59 µM

## O=C(Cc1noc2ccccc12)Nc1ccc(C(=O)N2CCCC2)cc1
[1]
  IC50: > 10 µM
  IC90: > 10 µM

## CN1C=C/C(=C/c2ccc3ccccc3[n+]2C)c2ccccc21
[1]
  IC50: 1.06 µM
  IC90: 5.18 µM

## Cc1ccc(S(=O)(=O)N(Cc2ccccc2Cl)c2ccc(Br)cc2C(=O)c2ccccc2)cc1
FFLUC_HILL_SLOPE 4.75, FFLUC_R_SQUARED 0.66, PBLUC_HILL_SLOPE 8.83, PBLUC_R_SQUARED 0.156, read-out: LUCIFERASE INFECTION ASSAY - IC50
  IC50: 5.41 µM
  IC90: > 5.95 µM

## O=S(=O)(Nc1cc(C(F)(F)F)cc(C(F)(F)F)c1)c1cc(C(F)(F)F)cc(C(F)(F)F)c1
FFLUC_HILL_SLOPE 10.6, FFLUC_R_SQUARED 0.544, PBLUC_HILL_SLOPE 1.62, PBLUC_R_SQUARED 0.523, read-out: LUCIFERASE INFECTION ASSAY - IC50
  IC50: 1.2 µM
  IC90: 4.66 µM

## O=c1[nH][nH]c(-c2ccccc2)c1C=NCc1cccc(C(F)(F)F)c1
HEPG2TOX_HILL_SLOPE 6.09, HEPG2TOX_R_SQUARED 0.916, PBLUC_HILL_SLOPE 3.54, PBLUC_R_SQUARED 0.303, read-out: LUCIFERASE INFECTION ASSAY - IC50
  IC50: 7.61 µM
  IC90: > 9.56 µM

## O=C(NCCNc1ccnc2cc(Cl)ccc12)c1ccccc1F
[1]
  IC50: 2.31 µM
  IC90: 8.82 µM

## CO/N=C(/CS(=O)(=O)c1ccc(Cl)cc1)c1ccc(Cl)cc1
HEPG2TOX_HILL_SLOPE 1.88, HEPG2TOX_R_SQUARED 0.932, PBLUC_HILL_SLOPE 2.15, PBLUC_R_SQUARED 0.742, read-out: LUCIFERASE INFECTION ASSAY - IC50
  IC50: 1.17 µM
  IC90: 3.25 µM

## CS(=O)(=O)c1ncc(Cl)c(C(=O)Nc2nc(-c3cc(F)ccc3F)cs2)n1
HEPG2TOX_HILL_SLOPE 13.3, HEPG2TOX_R_SQUARED 0.702, PBLUC_HILL_SLOPE 67.7, PBLUC_R_SQUARED 0.588, read-out: LUCIFERASE INFECTION ASSAY - IC50
  IC50: 5.95 µM
  IC90: 6.15 µM

## Fc1cccc(NC(=S)NN=C2CCCCCC2)c1
PBLUC_HILL_SLOPE 0.519, PBLUC_R_SQUARED 0.189, read-out: LUCIFERASE INFECTION ASSAY - IC50
  IC50: > 11.8 µM
  IC90: > 11.8 µM

## COc1cc(NC(=O)CSc2nc(N)c3c4c(sc3n2)CCCC4)c(C)cc1[N+](=O)[O-]
[1]
  IC50: 3.53 µM
  IC90: > 10 µM

## CC1=C(C(=O)OCc2ccccc2)C(c2ccc(C(F)(F)F)cc2)CC(=O)N1 (centres undefined)
[1]
  IC50: > 8.48 µM
  IC90: > 8.48 µM

## CCOC(=O)c1sc(NC(=O)c2cccc(S(=O)(=O)N(C)c3ccc(OC)cc3)c2)cc1C
FFLUC_HILL_SLOPE 3.21, FFLUC_R_SQUARED 0.745, HEPG2TOX_HILL_SLOPE 15.7, HEPG2TOX_R_SQUARED 0.428, PBLUC_HILL_SLOPE 5.31, PBLUC_R_SQUARED 0.793, read-out: LUCIFERASE INFECTION ASSAY - IC50
  IC50: 6.44 µM
  IC90: 9.74 µM

## Cc1csc(NC(=O)Nc2ccc(C(F)(F)F)cc2)c1Cl
HEPG2TOX_HILL_SLOPE 12, HEPG2TOX_R_SQUARED 0.807, PBLUC_HILL_SLOPE 11.1, PBLUC_R_SQUARED 0.14, read-out: LUCIFERASE INFECTION ASSAY - IC50
  IC50: 3.63 µM
  IC90: 4.43 µM

## O=C(Nc1nc2c(s1)CCCC2)c1c[nH]c(=S)n1-c1ccccc1
[1]
  IC50: > 10 µM
  IC90: > 10 µM

## O=C(NCc1ccc(F)c(Cl)c1)Nc1csc([N+](=O)[O-])c1
PBLUC_HILL_SLOPE 9.52, PBLUC_R_SQUARED 0.452, read-out: LUCIFERASE INFECTION ASSAY - IC50
  IC50: 8.04 µM
  IC90: > 10 µM

## COc1ccc(-c2csc(CC(=O)NCc3ccccc3)n2)c(OC)c1
[1]
  IC50: > 10 µM
  IC90: > 10 µM

## CC(C)(C)c1nc2ccc(NC(=O)c3ccc(Cl)c(S(=O)(=O)NC4CC4)c3)cc2[nH]1
HEPG2TOX_HILL_SLOPE 8.98, HEPG2TOX_R_SQUARED 0.824, PBLUC_HILL_SLOPE 3.11, PBLUC_R_SQUARED 0.121, read-out: LUCIFERASE INFECTION ASSAY - IC50
  IC50: 7.36 µM
  IC90: > 10 µM

## CCOC(=O)c1oc2ccccc2c1COC(=O)c1ccc(C)c(NC(=O)c2ccco2)c1
PBLUC_HILL_SLOPE 12.1, 4.42, PBLUC_R_SQUARED 0.718, 0.471, read-out: LUCIFERASE INFECTION ASSAY - IC50
  IC50: 6.8 µM
  IC90: 7.27 µM

## CCCc1cc(C(=O)Nc2ccc(OC(F)F)cc2)sc1C
PBLUC_HILL_SLOPE 2.93, PBLUC_R_SQUARED 0.424, read-out: LUCIFERASE INFECTION ASSAY - IC50
  IC50: 8.81 µM
  IC90: > 10 µM

## O=C(OCc1cc(=O)oc2cc(O)ccc12)c1ccc(Cl)c(S(=O)(=O)N2CCCCCC2)c1
PBLUC_HILL_SLOPE 24.9, PBLUC_R_SQUARED 0.0553, read-out: LUCIFERASE INFECTION ASSAY - IC50
  IC50: 9.36 µM
  IC90: > 10 µM
